Assay results taken from patent publication US20250326771A1, “PIPERAZINE DERIVATIVES USEFUL IN HIV THERAPY” (VIIV HEALTHCARE COMPANY, priority 2022, published 2025).
Read-outs that look alike come from different tables or passages of the source.

Experiments:
XIAP-BIR3 = XIAP-BIR3 (Homo sapiens (Human), UniProt P98170); assay: BIR binding assay (FRET competition), XIAP BIR3; details: for XIAP BIR3 vs BIR2 separation window: fold separation (FS) for XIAP
How it was run: (§1)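 Each domain is run separately at its own level: 50 nM cIAP1-BIR3, 100 nM XIAP-BIR3, 325 nM for cIAP1-BIR2 or cIAP2-BIR2. Probe is a 200 nM fluorescent SMAC peptide, and the value is IC50 from FRET competition.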

cIAP2-BIR3 = cIAP2-BIR3 (Homo sapiens (Human), UniProt Q13489); assay: BIR binding assay (FRET competition), cIAP2 BIR3; details: for cIAP2 BIR3 vs BIR2 separation window: fold separation (FS) for cIAP2
Chain of cIAP2-BIR3 (Q13489 238-349): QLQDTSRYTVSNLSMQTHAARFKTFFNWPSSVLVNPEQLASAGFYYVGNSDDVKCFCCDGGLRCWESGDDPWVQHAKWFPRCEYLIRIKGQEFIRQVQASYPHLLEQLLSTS

XIAP-BIR2 = XIAP-BIR2 (Homo sapiens (Human), UniProt P98170); assay: BIR binding assay (FRET competition), XIAP BIR2
Chain of XIAP-BIR2 (P98170 124-240): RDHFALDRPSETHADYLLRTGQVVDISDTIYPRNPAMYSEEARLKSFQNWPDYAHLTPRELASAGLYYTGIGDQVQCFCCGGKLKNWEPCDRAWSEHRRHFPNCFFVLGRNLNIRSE
Description: The BIR domain binding assays are FRET based competition assays that utilize His-tagged versions of each of the BIR2 and BIR3 domains from cIAP1, cIAP2, and XIAP (each domain assayed separately) each at a custom optimal concentration and a probe, 200 nM SMAC/DIABLO peptide AVPIAQKSE labelled with AlexaFluor647 (part #crb 1110326h, Discovery Peptides). The assay is conducted in 50 mM HEPES, […], 1 mM CHAPS, 5% Glycerol, 1 mM DTT, in dI water with a final pH of 7.4 and final volume of 20 uL. Final protein domain concentrations are: 50 nM cIAP1-BIR3 (Part #APT-11-370 Reaction Biology), 100 nM XIAP-BIR3 (Part #APT-11-351 Reaction Biology), 200 nM XIAP-BIR2 (Part #APT-11-470 Reaction Biology), 325 nM cIAP2-BIR2 (Part #APT-11-489 Reaction Biology), 50 nM cIAP2-BIR3 (Part #APT-11-372 Reaction Biology), 325 nM cIAP1-BIR2 (Part #APT-11-487 Reaction Biology). Compounds were plated using a HP Tecan D300 printer in a final total volume of 202 nl and DMSO concentration normalized across the 15-point, 3-fold dilution series. Peptide and probe were prepared at 2× relative to the concentrations above in binding buffer, 10 uL added to the prepared compound plates, and incubated for 60 minutes. LANCE Eu-W1024 (part #AD0401 Perkin Elmer #, vendor) was prepared at 2× concentration in binding buffer for final concentration of 2 nM, 10 uL added to each well, and plates incubated for 30 minutes. Plates were read on an ENVISION multifunction plate reader with […] laser excitation to obtain the 615 nm/665 nm emission ratio as indicative of probe:protein proximity. Data was analyzed using GraphPad PRISM and curves fit using log(inhibitor) vs. response—Variable slope (four […] method to obtain IC50 and pIC50 values.

[1] = tested on: Jurkat HIV-luciferase clones; assay: Jurkat latency reversal assay; type: cell-based; details: Homo sapiens, 48 h; Jurkat latency reversal assay potency; read-out: Jurkat pEC50 (converted)
How it was run: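 A 1:1:1 mix of three Jurkat clones (C16, 115, N6) carrying integrated luciferase-expressing HIV proviruses, 5,000 cells/well, was exposed to 3-fold, 14-point compound titrations from 10 μM at 0.5% DMSO for 48 h at 37° C. Steady-Glo luminescence was fitted by four-parameter logistic regression to give EC50 and maximal percent activation relative to vehicle.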

cIAP1-BIR3 = cIAP1-BIR3 (Homo sapiens (Human), UniProt Q13490); assay: BIR binding assay (FRET competition), cIAP1 BIR3; details: for cIAP1 BIR3 vs BIR2 separation window: fold separation (FS) for cIAP1
Chain of cIAP1-BIR3 (Q13490 253-363): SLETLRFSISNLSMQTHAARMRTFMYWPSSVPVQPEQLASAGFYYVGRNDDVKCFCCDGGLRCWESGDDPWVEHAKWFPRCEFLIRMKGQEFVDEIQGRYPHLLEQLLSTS
How it was run: as §1

cIAP1-BIR2 = cIAP1-BIR2 (Homo sapiens (Human), UniProt Q13490); assay: BIR binding assay (FRET competition), cIAP1 BIR2
Chain of cIAP1-BIR2 (Q13490 173-257): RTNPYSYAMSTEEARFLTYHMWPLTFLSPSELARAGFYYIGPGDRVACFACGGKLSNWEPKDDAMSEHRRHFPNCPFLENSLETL
How it was run: as §1

cIAP2-BIR2 = cIAP2-BIR2 (Homo sapiens (Human), UniProt Q13489); assay: BIR binding assay (FRET competition), cIAP2 BIR2
Chain of cIAP2-BIR2 (Q13489 158-242): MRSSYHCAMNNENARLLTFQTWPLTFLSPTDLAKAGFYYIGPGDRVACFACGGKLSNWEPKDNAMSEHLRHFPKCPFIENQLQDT
How it was run: as §1

[2] = FRET competition binding, read-out: XIAP BIR2 (pIC50) (converted)

Chain of XIAP-BIR3 (P98170 241-356): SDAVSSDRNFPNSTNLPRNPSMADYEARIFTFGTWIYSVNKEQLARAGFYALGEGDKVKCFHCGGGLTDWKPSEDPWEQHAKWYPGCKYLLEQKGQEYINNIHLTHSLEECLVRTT

Structure (SMILES) | IC50 (XIAP-BIR3) | XIAP BIR3 vs BIR2 separation window (XIAP-BIR3) | IC50 (cIAP2-BIR3) | cIAP2 BIR3 vs BIR2 separation window (cIAP2-BIR3) | IC50 (XIAP-BIR2; [2]) | EC50 [1] | IC50 (cIAP1-BIR3) | cIAP1 BIR3 vs BIR2 separation window (cIAP1-BIR3) | IC50 (cIAP1-BIR2) | IC50 (cIAP2-BIR2) | IC50 (XIAP-BIR2; FRET competition, read-out: XIAP BIR2 (pIC50) (converted)) | IC50 (XIAP-BIR2)
C[C@@H]1CN(CC(=O)N2CC(C)(C)c3[nH]c(=O)c(Cc4ccc(F)cc4)cc32)[C@@H](CN2CCC(CN(C)C(=O)Cc3ccc(C(=O)N(C)CC4CCN(C[C@H]5CN[C@H](C)CN5CC(=O)N5CC(C)(C)c6[nH]c(=O)c(Cc7ccc(F)cc7)cc65)CC4)cc3)CC2)CN1 [Example 97, N-((1-(((2R,5R)-1-(2-(6-(4-fluorobenzyl)-3,3-dimethyl-5-oxo-2,3,4,5-tetrahydro-1H-pyrrolo[3,2-b]pyridin-1-yl)-2-oxoethyl)-5-methylpiperazin-2-yl)methyl)piperidin-4-yl)methyl)-4-(2-(((1-(((2R,5R)-1-(2-(6-(4-fluorobenzyl)-3,3-dimethyl-5-oxo-2,3,4,5-tetrahydro-1H-pyrrolo[3,2-b]pyridin-1-yl)-2-oxoethyl)-5-methylpiperazin-2-yl)methyl)piperidin-4-yl)methyl)(methyl)amino)-2-oxoethyl)-N-methylbenzamide] | 0.00794 to 0.0158 µM | ++++ (FS>10,000) | 0.00138 to 0.00794 µM | +++ (10,000>FS>1,000) | 10 to 51.3 µM | 0.0631 to 0.316 µM | 0.00138 to 0.00794 µM | ++++ (FS>10,000) | 1 to 3.16 µM | 3.16 to 10 µM | – | –
C[C@@H]1CN(CC(=O)N2CC(C)(C)c3[nH]c(=O)c(Cc4ccc(F)cc4)cc32)[C@@H](CN2CCC(CN(C)C(=O)Cc3ccc(CC(=O)N(C)CC4CCN(C[C@H]5CN[C@H](C)CN5CC(=O)N5CC(C)(C)c6[nH]c(=O)c(Cc7ccc(F)cc7)cc65)CC4)cc3)CC2)CN1 [Example 99, 2,2′-(1,4-phenylene)bis(N-((1-(((2R,5R)-1-(2-(6-(4-fluorobenzyl)-3,3-dimethyl-5-oxo-2,3,4,5-tetrahydro-1H-pyrrolo[3,2-b]pyridin-1-yl)-2-oxoethyl)-5-methylpiperazin-2-yl)methyl)piperidin-4-yl)methyl)-N-methylacetamide)] | 0.00794 to 0.0158 µM | ++++ (FS>10,000) | 0.00794 to 0.0158 µM | +++ (10,000>FS>1,000) | 10 to 51.3 µM | 0.0631 to 0.316 µM | 0.00138 to 0.00794 µM | +++ (10,000>FS>1,000) | 3.16 to 10 µM | 3.16 to 10 µM | – | –
C[C@@H]1CN(CC(=O)N2CC(C)(C)c3[nH]c(=O)c(Cc4ccc(F)cc4)cc32)[C@@H](CN2CCO[C@H](COCc3cccc(COC[C@@H]4CN(C[C@H]5CN[C@H](C)CN5CC(=O)N5CC(C)(C)c6[nH]c(=O)c(Cc7ccc(F)cc7)cc65)CCO4)n3)C2)CN1 [Example 84, 1,1′-(2,2′-((3R,3′R,6R,6′R)-(((2S,2'S)-(((pyridine-2,6-diylbis(methylene))bis(oxy))bis(methylene))bis(morpholine-2,4-diyl))bis(methylene))bis(3-methylpiperazine-6,1-diyl))bis(acetyl))bis(6-(4-fluorobenzyl)-3,3-dimethyl-1,2,3,4-tetrahydro-5H-pyrrolo[3,2-b]pyridin-5-one)] | 0.0158 to 0.0316 µM | ++++ (FS>10,000) | 0.00794 to 0.0158 µM | +++ (10,000>FS>1,000) | 10 to 51.3 µM | 0.00049 to 0.0126 µM | 0.00794 to 0.0158 µM | +++ (10,000>FS>1,000) | 1 to 3.16 µM | 3.16 to 10 µM | – | –
C[C@@H]1CN(CC(=O)N2CC(C)(C)c3[nH]c(=O)c(Cc4ccc(F)cc4)cc32)[C@@H](CN2CCN(Cc3c(F)c(F)c(CN4CCN(C[C@H]5CN[C@H](C)CN5CC(=O)N5CC(C)(C)c6[nH]c(=O)c(Cc7ccc(F)cc7)cc65)[C@H](C)C4)c(F)c3F)C[C@H]2C)CN1 [Example 28, 1,1′-(2,2′-((3R,3′R,6R,6′R)-(((2R,2′R)-((perfluoro-1,4-phenylene)bis(methylene))bis(2-methylpiperazine-4,1-diyl))bis(methylene))bis(3-methylpiperazine-6,1-diyl))bis(acetyl))bis(6-(4-fluorobenzyl)-3,3-dimethyl-1,2,3,4-tetrahydro-5H-pyrrolo [3,2-b]pyridin-5-one)] | 0.0316 to 0.501 µM | +++ (10,000>FS>1,000) | 0.0158 to 0.0316 µM | +++ (10,000>FS>1,000) | 10 to 51.3 µM | 0.316 to 3.31 µM | 0.0158 to 0.0316 µM | +++ (10,000>FS>1,000) | 1 to 3.16 µM | 3.16 to 10 µM | – | –
C[C@@H]1CN(CC(=O)N2CC(C)(C)c3ncc(N(C)c4ccc(F)cc4)cc32)[C@@H](CN2CCO[C@H](COc3cccc(OC[C@@H]4CN(C[C@H]5CN[C@H](C)CN5CC(=O)N5CC(C)(C)c6ncc(N(C)c7ccc(F)cc7)cc65)CCO4)c3)C2)CN1 [Compound 144] | 0.0316 to 0.501 µM | +++ (10,000>FS>1,000) | 0.0316 to 0.501 µM | +++ (10,000>FS>1,000) | – | 0.316 to 3.31 µM | 0.0316 to 0.501 µM | +++ (10,000>FS>1,000) | 10 to 51.3 µM | 10 to 51.3 µM | 10 to 51.3 µM | –
C[C@@H]1CN(CC(=O)N2CC(C)(C)c3[nH]c(=O)c(Cc4ccc(F)cc4)cc32)[C@@H](CN2CCO[C@H](COc3cccc(OC[C@@H]4CN(C[C@H]5CN[C@H](C)CN5CC(=O)N5CC(C)(C)c6[nH]c(=O)c(Cc7ccc(F)cc7)cc65)CCO4)c3F)C2)CN1 [Example 72, 1,1′-(2,2′-((3R,3′R,6R,6′R)-(((2S,2'S)-(((2-fluoro-1,3-phenylene)bis(oxy))bis(methylene))bis(morpholine-2,4-diyl))bis(methylene))bis(3-methylpiperazine-6,1-diyl))bis(acetyl))bis(6-(4-fluorobenzyl)-3,3-dimethyl-1,2,3,4-tetrahydro-5H-pyrrolo[3,2-b]pyridin-5-one)] | 0.0158 to 0.0316 µM | – | 0.0158 to 0.0316 µM | – | – | 0.00049 to 0.0126 µM | 0.00794 to 0.0158 µM | – | 0.0224 to 1 µM | 1 to 3.16 µM | – | 10 to 51.3 µM
C[C@@H]1CN(CC(=O)N2CC(C)(C)c3[nH]c(=O)c(Cc4ccc(F)cc4)cc32)[C@@H](CN2CCO[C@H](C(=O)NCC#CC#CCNC(=O)[C@@H]3CN(C[C@H]4CN[C@H](C)CN4CC(=O)N4CC(C)(C)c5[nH]c(=O)c(Cc6ccc(F)cc6)cc54)CCO3)C2)CN1 [Example 93, (2S,2'S)-N,N′-(hexa-2,4-diyne-1,6-diyl)bis(4-(((2R,5R)-1-(2-(6-(4-fluorobenzyl)-3,3-dimethyl-5-oxo-2,3,4,5-tetrahydro-1H-pyrrolo[3,2-b]pyridin-1-yl)-2-oxoethyl)-5-methylpiperazin-2-yl)methyl)morpholine-2-carboxamide)] | 0.0316 to 0.501 µM | ++++ (FS>10,000) | 0.00794 to 0.0158 µM | +++ (10,000>FS>1,000) | 10 to 51.3 µM | 0.0126 to 0.0631 µM | 0.00794 to 0.0158 µM | ++ (1,000>FS>100) | 0.0224 to 1 µM | 1 to 3.16 µM | – | –
